Measured values: PMC3503826, “Limits of Ligand Selectivity from Docking to Models: In Silico Screening for A1 Adenosine Receptor Antagonists” (PLoS ONE, 2012)

Experiments:
bovine A1AR = molecular target: bovine A1AR; design: method as in PMID 21080692; settings: reference compound; cited from earlier work
human A1AR = molecular target: T1, human A1AR (Homo sapiens, UniProt P30542); assay: Radioligand binding ([3H]DPCPX), membranes of CHO cells expressing hA1AR; settings: for inhibition at 10 µM: percent inhibition at 10 µM compound, [3H]DPCPX, read-out: A1 % Inhibition; for inhibition at 10 µM / Ki: hA1AR, CHO cell membranes; for Ki: [3H]DPCPX 0.5 nM, mean ± standard error, read-out: A1 Ki
T1 construct: expressed in transfected cells
T1 sequence (P30542 1-326): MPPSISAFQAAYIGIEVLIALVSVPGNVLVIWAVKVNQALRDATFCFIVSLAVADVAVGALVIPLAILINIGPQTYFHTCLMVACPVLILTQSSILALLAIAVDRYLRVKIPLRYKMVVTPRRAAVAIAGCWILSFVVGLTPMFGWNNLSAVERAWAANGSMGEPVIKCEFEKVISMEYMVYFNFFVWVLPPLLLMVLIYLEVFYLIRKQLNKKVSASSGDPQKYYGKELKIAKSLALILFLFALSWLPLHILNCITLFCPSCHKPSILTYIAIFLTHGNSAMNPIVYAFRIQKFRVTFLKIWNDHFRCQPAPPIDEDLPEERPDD
Experimental: (§1) Binding affinity for three human AR (hAR) subtypes was measured using standard radioligand assays and membrane preparations from Chinese hamster ovary (CHO) cells (A1 and A3) or human embryonic kidney (HEK) 293 cells (A2A) stably expressing a hAR subtype (Table 1).
(§2) Receptor binding assays: [^3H]8-Cyclopentyl-1,3-dipropylxanthine ([^3H]DPCPX, 120 Ci/mmol) and [^125I]N ^6-(4-amino-3-iodobenzyl)adenosine-5'-N-methyluronamide ([^125I]I-AB-MECA, 2200 Ci/mmol) were purchased from Perkin–Elmer Life and Analytical Science (Boston, MA). [^3H](2-[p-(2-Carboxyethyl)phenyl-ethylamino]-5'-N-ethylcarboxamido-adenosine) ([^3H]CGS21680, 39 Ci/mmol) was purchased from American Radiolabeled Chemicals, Inc. (St. Louis, MO). Other pharmacological reagents were purchased from Tocris-R&D Systems, Inc. (Minneapolis, MN). Test compounds were prepared as 5 mM stock solutions in DMSO and stored frozen.
(§3) Cell Culture and Membrane Preparation: CHO cells stably expressing the recombinant hA1 and hA3ARs, and HEK-293 cells stably expressing the hA2AAR were cultured in Dulbecco’s modified Eagle medium (DMEM) and F12 (1∶1) supplemented with 10% fetal bovine serum, 100 units/mL penicillin, 100 µg/mL streptomycin, and 2 µmol/mL glutamine. In addition, 800 µg/mL geneticin was added to the A2A media, while 500 µg/mL hygromycin was added to the A1 and A3 media. After harvesting, cells were homogenized and suspended in PBS. Cells were then centrifuged at 240 g for 5 min, and the pellet was resuspended in 50 mM Tris-HCl buffer (pH 7.5) containing 10 mM MgCl2. The suspension was homogenized and was then ultra-centrifuged at 14,330 g for 30 min at 4°C. The resultant pellets were resuspended in Tris buffer and incubated with adenosine deaminase (3 units/mL) for 30 min at 37°C. The suspension was homogenized with an electric homogenizer for 10 sec, pipetted into 1 mL vials and then stored at -80°C until the binding experiments. The protein concentration was measured using the BCA Protein Assay Kit from Pierce Biotechnology, Inc. (Rockford, IL).
(§4) Binding assays: Standard radioligand binding assays for A1, A2A, and A3ARs were used [37]–[39]. Into each tube in the binding assay was added 50 µL of increasing concentrations of the test ligand in Tris-HCl buffer (50 mM, pH 7.5) containing 10 mM MgCl2, 50 µL of the appropriate agonist radioligand, and finally 100 µL of membrane suspension. For the A1AR (22 µg of protein/tube) the radioligand used was [^3H]DPCPX (final concentration of 0.5 nM). For the A2AAR (20 µg/tube) the radioligand used was [^3H]CGS21680 (final concentration 10 nM). For the A3AR (21 µg/tube) the radioligand used was [^125I]I-AB-MECA (final concentration 0.2 nM). Nonspecific binding was determined using a final concentration of 10 µM NECA diluted with the buffer. The mixtures were incubated at 25°C for 60 min in a shaking water bath. Binding reactions were terminated by filtration through Brandel GF/B filters under a reduced pressure using a M-24 cell harvester (Brandel, Gaithersburg, MD). Filters were washed three times with 3 mL of 50 mM ice-cold Tris-HCl buffer (pH 7.5). Filters for A1 and A2AAR binding were placed in scintillation vials containing 5 mL of Hydrofluor scintillation buffer and counted using a Perkin Elmer Liquid Scintillation Analyzer (Tri-Carb 2810TR). Filters for A3AR binding were counted using a Packard Cobra II γ-counter.
(§5) Data analysis: Binding and functional parameters were calculated using Prism 5.0 software (GraphPAD, San Diego, CA, USA). IC50 values obtained from binding inhibition curves were converted to Ki values using the Cheng-Prusoff equation [40]. Data were expressed as mean ± standard error or percentage inhibition at 10 µM.

human A2AAR = molecular target: T2, human A2AAR (Homo sapiens, UniProt P29274); assay: Radioligand binding ([3H]CGS21680), membranes of HEK293 cells expressing hA2AAR; settings: HEK293 cell membranes; for Ki: [3H]CGS21680 10 nM, mean ± standard error, read-out: A2A Ki; for inhibition at 10 µM: percent inhibition at 10 µM compound, [3H]CGS21680, read-out: A2A % Inhibition
T2 construct: expressed in transfected cells
Experimental: as §1, §2, §3, §4, §5

human A3AR = molecular target: T3, human A3AR (Homo sapiens, UniProt P0DMS8); assay: Radioligand binding ([125I]I-AB-MECA), membranes of CHO cells expressing hA3AR; settings: for inhibition at 10 µM: percent inhibition at 10 µM compound, [125I]I-AB-MECA, read-out: A3 % Inhibition; for inhibition at 10 µM / Ki: hA3AR, CHO cell membranes; for Ki: [125I]I-AB-MECA 0.2 nM, mean ± standard error, read-out: A3 Ki
T3 construct: expressed in transfected cells
T3 sequence (P0DMS8 1-318): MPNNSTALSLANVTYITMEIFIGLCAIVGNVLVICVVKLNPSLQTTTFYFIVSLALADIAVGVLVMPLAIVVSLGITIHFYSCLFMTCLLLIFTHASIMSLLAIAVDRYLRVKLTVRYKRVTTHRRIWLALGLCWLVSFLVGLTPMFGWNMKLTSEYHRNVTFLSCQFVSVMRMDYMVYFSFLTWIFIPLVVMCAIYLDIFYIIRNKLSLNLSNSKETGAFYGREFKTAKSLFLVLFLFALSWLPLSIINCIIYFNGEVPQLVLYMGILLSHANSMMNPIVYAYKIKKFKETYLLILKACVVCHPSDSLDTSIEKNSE
Experimental: as §1, §2, §3, §4, §5

T2 sequence (P29274 whole entry): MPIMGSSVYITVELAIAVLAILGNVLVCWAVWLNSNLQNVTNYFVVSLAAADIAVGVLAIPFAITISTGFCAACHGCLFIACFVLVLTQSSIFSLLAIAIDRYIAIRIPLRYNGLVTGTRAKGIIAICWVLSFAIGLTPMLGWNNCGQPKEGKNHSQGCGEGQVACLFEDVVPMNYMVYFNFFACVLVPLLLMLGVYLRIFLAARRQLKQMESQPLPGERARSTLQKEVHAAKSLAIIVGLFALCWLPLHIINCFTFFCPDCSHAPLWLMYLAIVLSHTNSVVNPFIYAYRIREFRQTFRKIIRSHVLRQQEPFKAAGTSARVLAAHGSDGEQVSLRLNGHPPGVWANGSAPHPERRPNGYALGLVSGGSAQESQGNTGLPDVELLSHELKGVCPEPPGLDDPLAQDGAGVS

Structure (SMILES) | inhibition at 10 µM (human A1AR) [%] | Ki (human A2AAR) [µM] | Ki (human A1AR) [µM] | Ki (human A3AR) [µM] | other results
OC1CCC(Nc2nc(-c3ccccc3)nc3c2nnn3Cc2ccccc2)CC1 (stereo not drawn) [Compound 5, 4-[(3-benzyl-5-phenyl-triazolo[4,5-e]pyrimidin-7-yl)amino]cyclohexan-1-ol] |  |  |  |  | Ki (bovine A1AR): 3 nM
Cc1ccccc1Nc1nc(N)nc(COc2ccccc2C#N)n1 [Compound 9] | 2 ± 2 | 2.36 ± 0.26 |  | 4.86 ± 0.33 | 
Cc1cccc2c(=O)[nH]c(CSc3n[nH]c(C(C)C)n3)nc12 [Compound 14] | 19 ± 10 | 6.54 ± 1.09 |  |  | inhibition at 10 µM (human A3AR): 49 ± 1%
Nc1nc(COC(=O)c2cc3cc(F)ccc3[nH]2)nc2ccccc12 [Compound 15] | 20 ± 4 |  |  | 9.33 ± 1.8 | inhibition at 10 µM (human A2AAR): 5 ± 3%
CN(C(=O)Cc1csc(NC(=O)C2CC2)n1)c1ccccc1 [Compound 16] | 13 ± 2 |  |  | 13.4 | inhibition at 10 µM (human A2AAR): 36 ± 0.2%
CCOc1cccc2cc(C(=O)NCc3ccccn3)c(=N)oc12 [Compound 17] |  | 0.74 ± 0.39 | 0.4 ± 0.06 |  | inhibition at 10 µM (human A3AR): 48 ± 7%
Cn1nnnc1SCC(=O)Nc1nc(-c2cccs2)cs1 [Compound 18] |  | 2.13 ± 0.72 | 3.43 ± 1.03 | 1.76 ± 0.21 | 
Cn1c(=O)c2[nH]c(NCC3CCCO3)nc2n(-c2ccccc2)c1=O (stereo not drawn) [Compound 19] |  | 6.66 ± 0.86 | 3.34 ± 0.56 |  | inhibition at 10 µM (human A3AR): 23 ± 3%
CCN(Cc1nc2ccccc2c(=O)[nH]1)C(=O)c1cc(C2CC2)[nH]n1 [Compound 22] | 36 | 9.3 ± 0.7 |  |  | inhibition at 10 µM (human A3AR): 42 ± 6%
Nc1nc(Cn2nnc(-c3ccccc3)n2)nc(Nc2ccccc2)n1 [Compound 24] | 33 ± 9 | 6.14 ± 1.69 |  | 0.04 ± 0.006 | Selectivity for A3AR (human A3AR; judged from Ki at the three hAR subtypes): slightly selective
C=CCOc1ccccc1/C=N/Nc1nc2ccccc2c(=O)n1C [Compound 25] |  | 1.45 ± 0.17 | 2.93 ± 0.48 | 0.55 ± 0.07 | 
Cc1cc(C)c2c(=O)[nH]c(SCC(=O)Nc3cc(C)on3)nc2n1 [Compound 26] |  | 1.37 ± 0.47 | 3.94 ± 0.39 | 3.85 ± 0.59 | 

Second part, led by results:

inhibition at 10 µM (human A1AR) [%] | Ki (human A2AAR) [µM] | Ki (human A1AR) [µM] | Ki (human A3AR) [µM] | Structure (SMILES) | other results
17 ± 9 | 3.31 ± 0.27 |  |  | CC(NC(=O)c1ccco1)C(=O)Nc1nc(-c2ccccn2)cs1 (stereo not drawn) [Compound 7] | inhibition at 10 µM (human A3AR): 43 ± 3%
 |  | 3.46 ± 0.42 |  | O=C(Nc1nc(-c2ccccn2)cs1)c1cccc(-n2cnnn2)c1 [Compound 8] | Selectivity for A1AR over A2AAR and A3AR (human A1AR; by the criteria used in this screen (>50% inhibition at 10 µM)): selective for the A1AR; inhibition at 10 µM (human A2AAR): 11 ± 6%; inhibition at 10 µM (human A3AR): 35 ± 4%
9 ± 9 |  |  | 9.06 ± 1.1 | O=C(Nc1nc(-c2ccccn2)cs1)c1cc2c(F)cccc2[nH]1 [Compound 10] | inhibition at 10 µM (human A2AAR): 37 ± 1%
13 ± 9 |  |  | 13.7 | CCCn1nc(C(=O)Nc2nc(-c3ccccn3)cs2)ccc1=O [Compound 11] | inhibition at 10 µM (human A2AAR): 35 ± 3%
28 ± 9 | 3.65 ± 0.87 |  | 2.78 ± 0.92 | COc1ccc(OCC(=O)Nc2nc(-c3ccccn3)cs2)cc1 [Compound 12] | 
10 ± 10 | 10.9 |  | 3.48 ± 1.1 | COc1cccc(/C=C/C(=O)Nc2nc(-c3ccccn3)cs2)c1 [Compound 13] | 
45 | 3.56 ± 0.51 |  | 1.52 ± 0.36 | N#Cc1cccc(C(=O)Nc2nc(-c3ccccn3)cs2)c1 [Compound 20] | 
 | 1.34 ± 0.31 | 0.98 ± 0.09 | 0.205 ± 0.03 | CCS(=O)(=O)Nc1cccc(C(=O)Nc2nc3ccccc3[nH]2)c1 [Compound 21] | 
 | 3.78 ± 0.83 | 1.22 ± 0.34 | 0.07 ± 0.02 | O=C(Nc1nc(-c2cccc(F)c2)cs1)c1ccc2[nH]nnc2c1 [Compound 23] | 
